Measurements as given in PMC10545747, “Development of cyclopeptide inhibitors of cGAS targeting protein-DNA interaction and phase separation” (Nature Communications, 2023).
Several values for one entry are separate records, joined by “and”; a condition that tells them apart may be missing. Equal values may be shown once. Square brackets hold non-standard residues; d marks the D form. Peptide text beside a SMILES is read from it.

biological target: T1, recombinant human cGAS enzyme (hcGAS-ΔN, residues 147–522) (Homo sapiens, UniProt Q8N884); test: RNA-based fluorescent biosensor assay of cGAS activity (2',3'-cGAMP formation), in vitro screening; format: biochemical; details: not given
T1 construct: N-terminally truncated human cGAS (hcGAS-ΔN, residues 147–522); 6xHis-SUMO (N, cleaved yes); made in house; host or cells: Escherichia coli BL21 (DE3)
In short: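 In 40 mM Tris-HCl pH 7.5, 100 mM NaCl, 10 mM MgCl2, ISD (0.5 μM) started the reaction with hcGAS-ΔN (1.5 μM), ATP (1 mM) and GTP (1 mM). Incubation was 2 h at 37 °C, with compounds screened at 20 μM. 2',3'-cGAMP formed was quantified with an RNA-based fluorescent biosensor.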

T1 sequence (Q8N884 147-522, stated change not applied): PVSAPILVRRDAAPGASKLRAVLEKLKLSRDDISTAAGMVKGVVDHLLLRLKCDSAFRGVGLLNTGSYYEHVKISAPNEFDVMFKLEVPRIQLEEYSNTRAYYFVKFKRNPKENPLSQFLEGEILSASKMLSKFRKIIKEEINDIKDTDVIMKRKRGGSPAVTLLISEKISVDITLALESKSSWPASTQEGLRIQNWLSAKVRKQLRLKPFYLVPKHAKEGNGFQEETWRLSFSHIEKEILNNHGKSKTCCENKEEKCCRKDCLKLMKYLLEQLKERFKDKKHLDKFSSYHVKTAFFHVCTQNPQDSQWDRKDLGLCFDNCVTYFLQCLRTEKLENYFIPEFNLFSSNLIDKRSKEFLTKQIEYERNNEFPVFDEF

Compound	cGAS activity in the biosensor assay
CCN(CC)CCCC(C)Nc1c2ccc(Cl)cc2nc2ccc(OC)cc12 (stereo not shown) [quinacrine, reference compound]	inhibited the activity of cGAS in a dose-dependent manner

same assay, conditions: 20 μM; replicate values

Compound	Remaining activity (%), Fig. 1a source data
CC(C)C[C@@H]1NC(=O)[C@H](CCCNC(=N)N)NC(=O)[C@H](C(C)C)NC(=O)[C@H](C)NC(=O)[C@@H](Cc2ccccc2)NC(=O)[C@H](CC(C)C)NC(=O)[C@H](CCCNC(=N)N)NC(=O)[C@H](C(C)C)NC(=O)[C@H](C)NC(=O)[C@@H](Cc2ccccc2)NC1=O [XQ8, Cyclo (LfAVRLfAVR)] (cyclo(AVRL[dF]AVRL[dF]))	48.5808% and 47.6977%
Cyclo (LaP(T(Bzl))RLaPTR) [XQ41]	101.101% and 103.439% and 102.283%

same assay, conditions: 20 μM; replicate values; read-out: Remaining activity (%), Fig. 1a source data

Compound	remaining activity at 20 µM [%]
CC(C)C[C@@H]1NC(=O)[C@H](CCCNC(=N)N)NC(=O)[C@H](C(C)C)NC(=O)[C@H](C)NC(=O)[C@@H](Cc2ccccc2)NC(=O)[C@H](CC(C)C)NC(=O)[C@H](CCCNC(=N)N)NC(=O)[C@H](C(C)C)NC(=O)[C@H](C)NC(=O)[C@@H](Cc2ccccc2)NC1=O [XQ8, Cyclo (LfAVRLfAVR)] (cyclo(AVRL[dF]AVRL[dF]))	48.8

same assay, conditions: peptides screened at 20 μM; Supplementary Table 1 / Fig. S5b

Compound	Inhibition % [%]
Cyclo ((hex)DLfPVR(hex)) [XQ69]	0
Cyclo (Aa(Hyp)TDLfPTR) [XQ85]	0
Cyclo (AaRTDLfPVR) [XQ89]	0
Cyclo (AaRVDLfPVR) [XQ87]	0
Cyclo (LaP(T(Bzl))RLaPTR) [XQ41]	0
Cyclo (Lf(Hyp)TDAfPTR) [XQ86]	0
Cyclo (Lf(Hyp)TDAfPVR) [XQ88]	7
Cyclo (LfPTDAfPVR) [XQ84]	0
Cyclo (LfPTDLf(K(Alloc))VR) [XQ72]	0
Cyclo (LfPTDLf(Orn(Dde))VR) [XQ70]	0
Cyclo (LfPTDLfPVR) [XQ90]	5
Cyclo (LfPVDAfPVR) [XQ81]	0
Cyclo (LfRADAfPTR) [XQ80]	0
Cyclo (LfRADAfPVR) [XQ83]	0
Cyclo (LfRVDAfPVR) [XQ82]	0
Cyclo (Lw(K(Dde))VDLf(K(Dde))VR) [XQ71]	0
Cyclo (LwP(T(NMe))DLf(K(Dde))VR) [XQ61]	16
Cyclo (LwPTD(Nle)f(K(Dde))VR) [XQ73]	0
Cyclo (LwPTDLf(K(Dde))(V(NMe))R) [XQ62]	0
Cyclo (LwPVD(Nle)f(K(Dde))IR) [XQ75]	0
Cyclo (LwPVDLf(K(Dde))VR) [XQ74]	0

same assay, conditions: peptides screened at 20 μM; Supplementary Table 1 / Fig. S5b; 20 µM

Compound	Inhibition % [%]
CC(C)C[C@@H]1NC(=O)[C@H](CCCNC(=N)N)NC(=O)[C@H](C(C)C)NC(=O)[C@H](C)NC(=O)[C@@H](Cc2ccccc2)NC(=O)[C@H](CC(C)C)NC(=O)[C@H](CCCNC(=N)N)NC(=O)[C@H](C(C)C)NC(=O)[C@H](C)NC(=O)[C@@H](Cc2ccccc2)NC1=O [XQ8, Cyclo (LfAVRLfAVR)] (cyclo(AVRL[dF]AVRL[dF]))	≥ 40

same assay, conditions: peptides screened at 20 μM; Supplementary Table 1 / Fig. S5b; read-out: Inhibition %

Compound	inhibition at 20 µM [%]
CC(C)C[C@@H]1NC(=O)[C@H](CCCNC(=N)N)NC(=O)[C@H](C(C)C)NC(=O)[C@H](C)NC(=O)[C@@H](Cc2ccccc2)NC(=O)[C@H](CC(C)C)NC(=O)[C@H](CCCNC(=N)N)NC(=O)[C@H](C(C)C)NC(=O)[C@H](C)NC(=O)[C@@H](Cc2ccccc2)NC1=O [XQ8, Cyclo (LfAVRLfAVR)] (cyclo(AVRL[dF]AVRL[dF]))	52
CC(C)C[C@@H]1NC(=O)[C@H](CC(=O)O)NC(=O)[C@H](C(C)C)NC(=O)[C@@H]2CCCN2C(=O)[C@@H](Cc2ccccc2)NC(=O)[C@H](CC(C)C)NC(=O)[C@H](CCCNC(=N)N)NC(=O)[C@H](C(C)C)NC(=O)[C@@H]2CCCN2C(=O)[C@@H](Cc2ccccc2)NC1=O [XQ60, Cyclo (LfPVDLfPVR)] (cyclo(DL[dF]PVRL[dF]PV))	0
CC(C)C[C@@H]1NC(=O)[C@H](CCCNC(=N)N)NC(=O)[C@H](C(C)C)NC(=O)[C@@H]2CCCN2C(=O)[C@@H](Cc2ccccc2)NC(=O)[C@H](CC(C)C)NC(=O)[C@H]([C@@H](C)O)NC(=O)[C@@H]2CCCN2C(=O)[C@@H](Cc2ccccc2)NC(=O)[C@H](CC(=O)O)NC1=O [XQ63, Cyclo (LDfPTLfPVR)] (cyclo(D[dF]PTL[dF]PVRL))	0
CC(C)C[C@@H]1NC(=O)[C@H](CC(=O)O)NC(=O)[C@H](CCCNC(=N)N)NC(=O)[C@H](C(C)C)NC(=O)[C@@H]2CCCN2C(=O)[C@@H](Cc2ccccc2)NC(=O)[C@H](CC(C)C)NC(=O)[C@H]([C@@H](C)O)NC(=O)[C@@H]2CCCN2C(=O)[C@@H](Cc2ccccc2)NC1=O [XQ64, Cyclo (DLfPTLfPVR)] (cyclo(DL[dF]PTL[dF]PVR))	0
CC(C)C[C@@H]1NC(=O)[C@H](CCCNC(=N)N)NC(=O)[C@H](CC(=O)O)NC(=O)[C@H](C(C)C)NC(=O)[C@@H]2CCCN2C(=O)[C@@H](Cc2ccccc2)NC(=O)[C@H](CC(C)C)NC(=O)[C@H]([C@@H](C)O)NC(=O)[C@@H]2CCCN2C(=O)[C@@H](Cc2ccccc2)NC1=O [XQ65, Cyclo (LfPTLfPVDR)] (cyclo(DRL[dF]PTL[dF]PV))	0
CC(C)C[C@@H]1NC(=O)[C@H](CCCNC(=N)N)NC(=O)[C@H](C(C)C)NC(=O)[C@H](CC(=O)O)NC(=O)[C@@H]2CCCN2C(=O)[C@@H](Cc2ccccc2)NC(=O)[C@H](CC(C)C)NC(=O)[C@H]([C@@H](C)O)NC(=O)[C@@H]2CCCN2C(=O)[C@@H](Cc2ccccc2)NC1=O [XQ66, Cyclo (LfPTLfPDVR)] (cyclo(DVRL[dF]PTL[dF]P))	0
CC(C)C[C@@H]1NC(=O)[C@H](CCCNC(=N)N)NC(=O)[C@H](C(C)C)NC(=O)[C@@H]2CCCN2C(=O)[C@@H](Cc2ccccc2)NC(=O)[C@H](Cc2c[nH]cn2)NC(=O)[C@H](CC(=O)O)NC(=O)[C@H]([C@@H](C)O)NC(=O)[C@@H]2CCCN2C(=O)[C@@H](Cc2ccccc2)NC1=O [XQ67, Cyclo (LfPTDHfPVR)] (cyclo(DH[dF]PVRL[dF]PT))	0
CC(C)C[C@@H]1NC(=O)[C@H](CCCNC(=N)N)NC(=O)[C@H](C(C)C)NC(=O)[C@@H]2CCCN2C(=O)[C@@H](Cc2ccccc2)NC(=O)[C@H](CC(C)C)NC(=O)[C@H](CC(=O)O)NC(=O)[C@H](CCC(N)=O)NC(=O)[C@@H]2CCCN2C(=O)[C@@H](Cc2ccccc2)NC1=O [XQ68, Cyclo (LfPQDLfPVR)] (cyclo(DL[dF]PVRL[dF]PQ))	0
CC(C)C[C@@H]1NC(=O)[C@H](CCCNC(=N)N)NC(=O)[C@H](C(C)C)NC(=O)[C@@H]2CCCN2C(=O)[C@@H](Cc2ccccc2)NC(=O)[C@H](CC(C)C)NC(=O)[C@H](CC(=O)O)NC(=O)[C@H](C(C)C)NC(=O)[C@H](CCCNC(=N)N)NC(=O)[C@@H](Cc2ccccc2)NC1=O [XQ76, Cyclo (LfRVDLfPVR)] (cyclo(DL[dF]PVRL[dF]RV))	0
CC(C)C[C@@H]1NC(=O)[C@H](C)NC(=O)[C@H](C(C)C)NC(=O)[C@H](CCCNC(=N)N)NC(=O)[C@@H](Cc2ccccc2)NC(=O)[C@H](CC(C)C)NC(=O)[C@H](CC(=O)O)NC(=O)[C@H](C(C)C)NC(=O)[C@@H]2CCCN2C(=O)[C@@H](Cc2ccccc2)NC1=O [XQ77, Cyclo (LfPVDLfRVA)] (cyclo(AL[dF]PVDL[dF]RV))	10
CC(C)C[C@@H]1NC(=O)[C@H](CC(=O)O)NC(=O)[C@H](C(C)C)NC(=O)[C@@H]2CCCN2C(=O)[C@@H](C)NC(=O)[C@H](C)NC(=O)[C@H](CCCNC(=N)N)NC(=O)[C@H](C(C)C)NC(=O)[C@@H]2CCCN2C(=O)[C@@H](Cc2ccccc2)NC1=O [XQ78, Cyclo (AaPVDLfPVR)] (cyclo(A[dA]PVDL[dF]PVR))	0
CC(C)C[C@@H]1NC(=O)[C@H](CCCNC(=N)N)NC(=O)[C@H]([C@@H](C)O)NC(=O)[C@@H]2CCCN2C(=O)[C@@H](Cc2ccccc2)NC(=O)[C@H](C)NC(=O)[C@H](CC(=O)O)NC(=O)[C@H](C)NC(=O)[C@@H]2CCCN2C(=O)[C@@H](Cc2ccccc2)NC1=O [XQ79, Cyclo (LfPADAfPTR)] (cyclo(ADA[dF]PTRL[dF]P))	0

test system: dsDNA-stimulated THP1 cells; test: qPCR of IFNB1/CXCL10/IL6 mRNA in THP1 cells stimulated by dsDNA (ISD, HSV60mer); format: cell-based, human; details: THP1, dsDNA 6 h; hits 10 μM; replicate values
Source text: (§1) To screen direct cGAS inhibitors targeting protein-DNA interface from our developed focused library of macrocyclic peptides, we applied an RNA-based fluorescent biosensor for 2’,3’-cGAMP to detect cGAS activity in vitro (Supplementary Fig. 1a)[49]. The formation of 2’,3’-cGAMP from ATP and GTP was catalyzed by recombinant human cGAS enzyme (hcGAS-ΔN, residues 147–522, Supplementary Fig. 1b) in the presence of ISD (interferon stimulatory DNA, a 45-bp dsDNA), which was readily quantified by the RNA-based fluorescent biosensor and was further confirmed by ion exchange chromatography (Supplementary Fig. 1c). […] Subsequently, a total of 90 macrocyclic peptides were screened at a concentration of 20 μM (Fig. 1a and Supplementary Fig. 1e), and 4 hits (XQ2, XQ8, XQ19, and XQ46) were obtained for further testing at a cut-off of 40% inhibition (Supplementary Table 1). To evaluate the inhibitory effect of the hits against cGAS in cells, we employed real-time quantitative PCR (qPCR) to examine mRNA levels of IFNΒ1 in THP1 cells. The reported cGAS inhibitor RU.521 was used as the positive control, and the non-active peptide XQ28 in the screening assay was used as the negative control. […] The inhibition of cGAS by these hits was further confirmed in the reporter cell line THP1-Lucia ISG (Invivogen) that expresses secreted luciferase induced by an IRF3-inducible ISG54 promoter (Fig. 1c). The discrepancy between the inhibitory effect of the hits in protein and cellular assays may be attributed to their different cellular permeability.
The indicated cells were stimulated with either ISD (Sangon Biotech), HSV-1 (Provided by Dr. Zhengfan Jiang), HSV60mer (Sangon Biotech), SATE-cddA[70], 2’3’-cGAMP (Invivogen, Cat# tlrl-nacga23-1), ADU-S100 (MedChemExpress, Cat# HY-12885A) or Poly(I:C) (Invivogen, Cat# tlrl-pic) after XQ2 or XQ2B treatment. Total RNA was isolated from indicated cells that incubated with the drugs for indicated time or mice tissues by using NucleoZOL reagent (MACHEREY-NAGEL) according to the manufacturer’s instructions. The quantifications of mRNA levels were carried out by real-time PCR using a PerfectStart® Uni RT&qPCR Kit (TransGen Biotech) on the QuantStudio 5 qPCR machine (Applied Biosystems). Samples were carried out in triplicate and the target CT values were normalized to GAPDH CT values. Primers of qPCR used in this study can be found in Supplementary Table S2.

Compound	IFNB1 mRNA, qPCR, Fig. 1b
CC(C)C[C@@H]1NC(=O)[C@H](CCCNC(=N)N)NC(=O)[C@H](C(C)C)NC(=O)[C@H](C)NC(=O)[C@@H](Cc2ccccc2)NC(=O)[C@H](CC(C)C)NC(=O)[C@H](CCCNC(=N)N)NC(=O)[C@H](C(C)C)NC(=O)[C@H](C)NC(=O)[C@@H](Cc2ccccc2)NC1=O [XQ8, Cyclo (LfAVRLfAVR)] (cyclo(AVRL[dF]AVRL[dF]))	50.5074 and 61.5926 and 57.7936

test system: THP1-Lucia ISG cells; test: Luciferase reporter assay, dsDNA stimulation; format: cell-based, human; parameters: Type I interferon response, luciferase activity, Fig. 1c / luciferase activity, Fig. 2a: scale not given here; details: dsDNA 24 h; replicate values
Source text: as §1
THP1-Lucia ISG cells (Invivogen) were seeded into a 96-well plate and incubated with RU.521 (Invivogen) or XQ2 for the indicated time, and then transfected with dsDNA by lipofectamine 2000 (Invitrogen) or infected by HSV-1 with the indicated titer for 24 h. The supernatant was collected and 50 μL QUANTI-Luc Luciferase reagent (Invivogen) was added to 20 μL supernatants per well, and luciferase luminescence was detected by a microplate reader (BioTek Synergy H1) immediately.

Compound	Type I interferon response, luciferase activity, Fig. 1c
CC(C)C[C@@H]1NC(=O)[C@H](CCCNC(=N)N)NC(=O)[C@H](C(C)C)NC(=O)[C@H](C)NC(=O)[C@@H](Cc2ccccc2)NC(=O)[C@H](CC(C)C)NC(=O)[C@H](CCCNC(=N)N)NC(=O)[C@H](C(C)C)NC(=O)[C@H](C)NC(=O)[C@@H](Cc2ccccc2)NC1=O [XQ8, Cyclo (LfAVRLfAVR)] (cyclo(AVRL[dF]AVRL[dF]))	1.122 and 0.7764 and 0.491
